Laboratory results published in patent US20230270805A1, “A COMPOSITION COMPRISING AN EXTRACT OF ALDER TREE OR THE ISOLATED COMPOUNDS THEREFROM FOR TREATING AND PREVENTING SKELETON MUSCLE-RELATED DISORDER AND THE USE THEREOF” (Sookmyung Women's University Indusutry-Academic Cooperation …, priority 2020, published 2023).

Experiments:
C57/BL6 mice [1] = test: Weight of muscle mass, epididymal fat and liver in dexamethasone animal model of muscle loss; format: in vivo, mouse; conditions: Dexa + oxymetholone 10 mg/kg oral daily, autopsy at 4 weeks
Protocol: (§1) Dexamethasone, a synthetic glucocorticoid, was injected subcutaneously into C57/BL6 mouse mice to establish an animal model of muscle loss and following experiment was performed.
(§2) To establish an in vivo model of muscle loss, 6 weeks-old male C57/BL6 mice (Raon Bio, 6 weeks old, weight range: 32-36 g) were acclimated for one-week, and then weighed animals determined to be healthy during the acclimatization period. The mice close to the average weight were selected using a simple random sampling method and were classified into five groups, namely, (a) a control group, (b) a muscle loss control group (treated with dexamethasone 1 mg/kg), (c) test sample group treated with inventive extract 250 mg/kg and dexamethasone, (d) test sample group treated with inventive extract 500 mg/kg and dexamethasone, and (e) positive control treated with oxymetholone (Celltrion Co. Ltd, ATC #A14AA05, 10 mg/kg) and dexamethasone.
(§3) The inventive Extract and oxymetholone were administered once to the mice daily for 4 weeks and dexamethasone was injected subcutaneously for 10 days from 10 days before the end of co-treatment of inventive extract and oxymetholone.
(§4) Both of inventive extract and oxymetholone were forcibly administered orally using zonde for oral administration after holding and fixing the skin of the animal's poll area, and dexamethasone was injected slowly subcutaneously after inserting a syringe into the dorsal skin fold of the animal held on the thumb and index finger, slightly aspirating whether it was injected normally, and confirming that no blood came out.
The mice were anesthetized with anesthetic to prevent the movement of experimental animals and sacrificed to minimize pain to dissect them. All instruments used during the experiment were sterilized and disinfected and their liver and epididymis fat were harvested.
The gastrocnemius muscle and soleus muscle of the mice were separated, washed in saline, drained, and weighed.
After autopsy at 4 weeks after administration, the weight of liver and Epididymis fat was weighed to calculate weight-to-weight to compare the relative differences between the organ's weight in the groups.

C57/BL6 mice [2] = test: Grip strength test in dexamethasone animal model of muscle loss; format: in vivo, mouse; conditions: Dexa + oxymetholone 10 mg/kg oral daily
Protocol: as §1, §2, §3, §4
The grip strength of mice was determined as follows; after grabbing the animal's tail and placing it on the grid, the front foot and body were pulled at the same speed until the front foot and body were held at the grid with the front paw, and the average value was calculated after three experimental repetitions. The determination was performed on the 14th and 28th days after the administration of test sample.

C57/BL6 mice [3] = test: Treadmill test in dexamethasone animal model of muscle loss; format: in vivo, mouse; conditions: Dexa + oxymetholone 10 mg/kg oral daily
Protocol: as §1, §2, §3, §4
The determination was performed on the 14th and 28th days after the administration of test sample.

[4] = Body weight in dexamethasone animal model of muscle loss; format: in vivo, mouse; conditions: Dexa + oxymetholone 10 mg/kg oral daily
Protocol: as §1, §2, §3, §4
The body weight of every animal was measured once a week for 4 weeks from the day of inventive extract administration.

MHC = test: Western blot of MHC expression in differentiating C2C12 myoblasts; format: cell-based, mouse
Protocol: (§5) Various concentrations of inventive extract (1, 10, 100 ng/ml) were treated to C2C12 cells (mouse myoblast cell line; Cat^#CRL-1771, ATCC) in differentiation medium (2% horse serum-containing DMEM, Cat^#11965-084, Gibco) for 3 days to induce their differentiation.
(§6) For Western blot analysis, about 3×10^4 mouse myoblast cell cells were incubated in 60 mm plates for 24 hours, and each sample was added to the differentiation medium for 3 days to differentiate. The protein extract was obtained from the differentiated cells using by lysis buffer [25 mM Tris-HCl (pH 7.5), 100 mM NaCl, 1% NP-40, 1% sodium deoxycholate, 0.1% sodium dodecyl sulfate (SDS), and protease inhibitor cocktail, Calbiochem, Darmstadt, Germany). The protein extract (25 μg) was performed to SDS-polyacrylamide gel electorphoresis (PAGE) and transferred to polyvinylidene fluoride (PVDF) membranes.
Primary mouse anti-MHC (sc-376157, Santa Cruz) or anti-myoD (sc-32758, Santa Cruz) was conjugated to the blots at 4° C., for 12 hrs and then conjugated with anti-mouse secondary antibody conjugated to Horseradish peroxidase (goat anti-mouse IgG-HRP, sc-2005, SantaCruz) to analyze the amount of MHC protein by chemiluminescence method. Pan-cadherin (Cat #3678, Sigma) was used as a loading control in the experiment.
(§7) Various inventive compounds (10 nM) were treated to C2C12 cells (mouse myoblast cell line; Cat^#CRL-1771, ATCC) in differentiation medium (2% horse serum-containing DMEM, Cat^#11965-084, Gibco) for 3 days to induce their differentiation.
as §6, with “electrophoresis” for “electorphoresis”
(§8) The change of MHC expression caused by inventive compound in myotube cell was determined by immunostaining method using by mouse anti-MHC and anti-mouse IgG2b Alexa-fluor 568 (See FIG. 7) (Chem. Biol. Interact. 2016, 248:60).
(§9) Various concentrations of inventive compound 1 (1, 10 and 100 nM) were treated to C2C12 cells (mouse myoblast cell line; Cat^#CRL-1771, ATCC) in differentiation medium (2% horse serum-containing DMEM, Cat^#11965-084, Gibco) for 3 days to induce their differentiation.

[5] = test system: C2C12 myotube cells treated with dexamethasone; test: Immunofluorescence staining of multinucleated MHC-positive myotubes after dexamethasone-induced muscle loss; format: cell-based, mouse; conditions: dexamethasone (12 hours) + compound 10 nM; control group = 1
Protocol: (§10) After removing respective differentiation medium, the differentiated myoblast cells in the differentiation medium were washed with phosphate buffer solution twice and fixed with 4% paraformaldehyde (0141, BBC Biochemical) for 20 mins. After washing the cells with phosphate buffer solution twice again, the cells were treated with 0.1% tritonX-100 (2315025, Sigma) for 20 mins. After washing the cells with phosphate buffer solution twice again, the cells were blocked with 5% horse serum solution (16050122, Gibco) and mouse anti-MHC (MAB4470, R&D systems) was added thereto to react for 12 hours at 4° C.
(§11) After finishing the reaction, the cells were washed with phosphate buffer solution more than 3 times and then the level of MHC expression was analyzed using by Alexa Flouor 568-conjuagted secondary anti-mouse (A-21144, MicoProbes) and DAPI (D9542, Sigma). The test result of immunofluorescence on MHC-positive myotubes was visualized with red color and the DAPI-labelled nucleus was visualized with blue color.
About 3×10^4 mouse myoblast cell cells (C2C12; CRL-1772 ATCC) were incubated in 60 mm plates for 24 hours, and various inventive compounds (10 nM) were added to the differentiation medium (0273, Gibco) for 3 days to differentiate.

C2C12 cells = test: Immunofluorescence staining (anti-MHC/DAPI) of multinucleated myotubes, myoblast differentiation; format: cell-based, mouse
Protocol: as §5, §10, §11, §7, §8, §9

myoD = test: Western blot of myoD expression in differentiating C2C12 myoblasts; format: cell-based, mouse; conditions: 3 days differentiation
Protocol: Various concentrations of inventive extract (1, 10, 100 ng/ml) were treated to C2C12 cells (mouse myoblast cell line; Ca^#CRL-1771, American Type Culture Collection (ATCC)) and cell lysates obtained from the differentiated cells, were subjected to Western Blot analysis to evaluate the expressed level of MHC and myoD proteins (The result was shown in FIG. 1A). the change of MHC expression caused by inventive extract in myotube cell was determined by immunostaining method using by mouse anti-MHC and anti-mouse IgG2b Alexa-fluor 568 (See FIG. 1B) (Chem. Biol. Interact. 2016, 248:60).
as §5
as §6, with “The protein extract (25 μg) was performed to SDS-polyacrylamide gel electorphoresis (PAGE) and transferred to polyvinylidene fluoride (PVDF) membranes.” left out
In order to investigate the myogenic effect of the inventive compound 1 obtained in Example, various concentrations of inventive compound 1 (1, 10 and 100 nM) were treated to C2C12 cells (mouse myoblast cell line; Cat^#CRL-1771, American Type Culture Collection (ATCC)) and cell lysates obtained from the differentiated cells, were subjected to Western Blot analysis to evaluate the expressed level of MHC and myoD proteins (The result was shown in FIG. 6). The change of MHC expression caused by inventive compound in myotube cell was determined by immunostaining method using by mouse anti-MHC and anti-mouse IgG2b Alexa-fluor 568 (See FIG. 7) (Chem. Biol. Interact. 2016, 248:60). […]

p38 MAPK = test: Western blot of phosphorylated p38 MAPK in differentiated myotubes; format: cell-based, mouse; conditions: 3 days after differentiation
Protocol: Various concentrations of inventive extract (1, 10, 100 ng/ml) were treated to myoblast cells and the expressed level of p38 MAPK protein in the lysates of differentiated myotubes obtained at 3 days after the differentiation, was determined according to Western blot analysis.
Primary rabbit-anti phosphorylation p38 MAPK (Cat #9212, Cell Signaling Technology) was reacted with anti-rabbit secondary antibody (goat anti-rabbit IgG-HRP, sc-2004, SantaCruz) to determine the express level of phosphorylated p38 MAPK and primary rabbit-anti-p38 MAPK (Cat #9212, Cell Signaling Technology) was used to determine the expressed amount of total p38 MAPK (loading control)
Various concentrations of inventive compound 1 (1, 10, 100 nM) were treated to myoblast cells and the expressed level of p38 MAPK protein in the lysates of differentiated myotubes obtained at 3 days after the differentiation, was determined according to Western blot analysis.

[6] = compound 10 nM, 3 days differentiation, control = 1 (Experimental Example 3)
[7] = compound 10 nM, 3 days differentiation (Experimental Example 3)

C[C@]12C/C(=C/O)C(=O)C[C@@H]1CC[C@@H]1[C@@H]2CC[C@@]2(C)[C@H]1CC[C@]2(C)O [Oxy, oxymetholone]
absolute weight, epididymal fat (C57/BL6 mice [1]): 0.43 ± 0.09^# gram
absolute weight, liver (C57/BL6 mice [1]): 1.16 ± 0.07 gram
absolute weight, calf muscle (C57/BL6 mice [1]; gastrocnemius): 0.251 ± 0.016 gram
absolute weight, fluke muscle (C57/BL6 mice [1]; soleus): 0.023 ± 0.002^d gram
grip strength (C57/BL6 mice [2]; 2 weeks): 1.00 ± 0.06 N
grip strength (C57/BL6 mice [2]; 4 weeks): 1.25 ± 0.16^a N
motility (treadmill) (C57/BL6 mice [3]; 2 weeks): 774.75 ± 66.11 meter
motility (treadmill) (C57/BL6 mice [3]; 4 weeks): 773.93 ± 39.64 meter
body weight ([4]; 0 week): 22.26 ± 0.71 gram
body weight ([4]; 1 week): 22.49 ± 0.72 gram
body weight ([4]; 2 weeks): 23.25 ± 0.90 gram
body weight ([4]; 3 weeks): 23.22 ± 0.93 gram
body weight ([4]; 4 weeks): 23.20 ± 0.78^b gram

O=C(CCc1ccc(O)c(O)c1)CC(O)CCc1ccc(O)c(O)c1 (stereo not shown) [Compound 4, Hirsutanonol]
MHC/pan-cadherin expression (fold) (MHC; [6]): 1.9 fold
The number of muscle fibers that are multinucleated with five or more nuclei and expressed with MHC (fold) [5]: 0.7 fold
The number of muscle fibers that are multinucleated with five or more nuclei and expressed with MHC (fold) (C2C12 cells; [7]): 3.1 fold

COc1cc(/C=C/C(=O)OC[C@H](Cc2ccc(O)c(OC)c2)[C@H](COC(=O)/C=C/c2ccc(O)c(OC)c2)Cc2ccc(O)c(OC)c2)ccc1O [Compound 1, (−)-(2R,3R)-1,4-O-diferuloylsecoisolariciresinol]
MHC/pan-cadherin expression (fold) (MHC; [6]): 1.5 fold
MHC/pan-cadherin expression (fold) (MHC; compound 1 at 1 nM, 3 days differentiation (Experimental Example 4)): 1.2 fold
MHC/pan-cadherin expression (fold) (MHC; compound 1 at 10 nM, 3 days differentiation (Experimental Example 4)): 6.0 fold
MHC/pan-cadherin expression (fold) (MHC; compound 1 at 100 nM, 3 days differentiation (Experimental Example 4)): 4.6 fold
myoD/pan-cadherin expression (fold) (myoD; compound 1 at 1 nM): 1.2 fold
myoD/pan-cadherin expression (fold) (myoD; compound 1 at 10 nM): 1.3 fold
myoD/pan-cadherin expression (fold) (myoD; compound 1 at 100 nM): 1.7 fold
The number of muscle fibers that are multinucleated with five or more nuclei and expressed with MHC (fold) [5]: 0.7 fold
The number of muscle fibers that are multinucleated with five or more nuclei and expressed with MHC (fold) (C2C12 cells; [7]): 2.8 fold
The number of muscle fibers that are multinucleated with five or more nuclei and expressed with MHC (fold) (C2C12 cells; compound 1 at 1 nM (Experimental Example 4)): 1.5 fold
The number of muscle fibers that are multinucleated with five or more nuclei and expressed with MHC (fold) (C2C12 cells; compound 1 at 10 nM (Experimental Example 4)): 9.0 fold
The number of muscle fibers that are multinucleated with five or more nuclei and expressed with MHC (fold) (C2C12 cells; compound 1 at 100 nM (Experimental Example 4)): 8.0 fold
phosphorylated-p38/p38 expressed amount (fold) (p38 MAPK; compound 1 at 1 nM): 10.6 fold
phosphorylated-p38/p38 expressed amount (fold) (p38 MAPK; compound 1 at 10 nM): 14.8 fold
phosphorylated-p38/p38 expressed amount (fold) (p38 MAPK; compound 1 at 100 nM): 15.0 fold
